target: T1, MAGL (Homo sapiens, UniProt Q99685); assay: 2-AG assay (MAGL inhibitory activity, hydrolysis of 2-arachidonoylglycerol to arachidonic acid followed by mass spectrometry); type: biochemical; conditions: 8 μM 2-arachidonoylglycerol, 15 min pre-incubation, 30 min incubation at RT, RapidFire MS readout
T1 sequence (Q99685 1-303): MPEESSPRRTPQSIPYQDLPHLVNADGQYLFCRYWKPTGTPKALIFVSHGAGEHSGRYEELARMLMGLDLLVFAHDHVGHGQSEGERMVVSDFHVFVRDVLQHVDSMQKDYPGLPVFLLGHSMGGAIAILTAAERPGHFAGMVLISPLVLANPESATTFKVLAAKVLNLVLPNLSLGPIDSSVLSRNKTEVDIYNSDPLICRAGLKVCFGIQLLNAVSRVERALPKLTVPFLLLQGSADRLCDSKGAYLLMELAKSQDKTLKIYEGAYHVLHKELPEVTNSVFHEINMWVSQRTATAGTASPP
Summary of the method: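 Human MAGL ([…] final) pre-incubated 15 min at RT with compound in 50 mM TRIS, 1 mM EDTA, 0.01% Tween-20, 2.5% DMSO; 8 μM 2-AG then added for 30 min at RT. Acetonitrile quench with d8-arachidonic acid; arachidonic acid measured by RapidFire SPE–MS/MS, activity from arachidonic acid/d8 ratio.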

SMILES	IC50 [nM]
Cc1ccc(COC2CN(C(=O)N3CC4(CC(n5cnc(C6CC6)c5)C4)C3)C2)cc1C(F)(F)F [Example 106, [6-(4-cyclopropylimidazol-1-yl)-2-azaspiro[3.3]heptan-2-yl]-[3-[[4-methyl-3-(trifluoromethyl)phenyl]methoxy]azetidin-1-yl]methanone]	4.1
O=C(N1CC(C#Cc2ccccc2C(F)F)C1)N1CC2(CC(n3cnc(C4CC4)n3)C2)C1 [Example 107, [6-(3-cyclopropyl-1,2,4-triazol-1-yl)-2-azaspiro[3.3]heptan-2-yl]-[3-[2-[2-(difluoromethyl)phenyl]ethynyl]azetidin-1-yl]methanone]	4.7
O=C(N1CC(OCc2ccc(Cl)cc2F)C1)N1CC2(CC(n3cnc(C4CC4)c3)C2)C1 [Example 108, [3-[(4-chloro-2-fluoro-phenyl)methoxy]azetidin-1-yl]-[6-(4-cyclopropylimidazol-1-yl)-2-azaspiro[3.3]heptan-2-yl]methanone]	25
O=C(N1CC(OCc2ccc(F)cc2Cl)C1)N1CC2(CC(n3cnc(C4CC4)c3)C2)C1 [Example 109, [3-[(2-chloro-4-fluoro-phenyl)methoxy]azetidin-1-yl]-[6-(4-cyclopropylimidazol-1-yl)-2-azaspiro[3.3]heptan-2-yl]methanone]	63.5
O=C(N1CC(OCc2ccc(F)cc2F)C1)N1CC2(CC(n3cnc(C4CC4)c3)C2)C1 [Example 110, [6-(4-cyclopropylimidazol-1-yl)-2-azaspiro[3.3]heptan-2-yl]-[3-[(2,4-difluorophenyl)methoxy]azetidin-1-yl]methanone]	65.8
N#Cc1ccc(OC2CC3(C2)CN(C(=O)N2CC4(CC(n5cnc(C6CC6)n5)C4)C2)C3)c(F)c1 [Example 111, 4-[[2-[6-(3-cyclopropyl-1,2,4-triazol-1-yl)-2-azaspiro[3.3]heptane-2-carbonyl]-2-azaspiro[3.3]heptan-6-yl]oxy]-3-fluoro-benzonitrile]	4.3
O=C(N1C[C@H]2C[C@H](Oc3ccc(OC(F)F)cc3F)C[C@H]2C1)N1CC2(CC(n3cnc(C4CC4)n3)C2)C1 [Example 112, [6-(3-cyclopropyl-1,2,4-triazol-1-yl)-2-azaspiro[3.3]heptan-2-yl]−[rac-(3aS,6aR)-5-[4-(difluoromethoxy)-2-fluoro-phenoxy]-3,3a,4,5,6,6a-hexahydro-1H-cyclopenta[c]pyrrol-2-yl]methanone]	6
O=C(N1C[C@H]2C[C@H](Oc3ccc(C(F)(F)F)cc3)C[C@H]2C1)N1CC2(CC(n3cnc(C4CC4)n3)C2)C1 [Example 113, [6-(3-cyclopropyl-1,2,4-triazol-1-yl)-2-azaspiro[3.3]heptan-2-yl]-[rac-(3aS,6aR)-5-[4-(trifluoromethyl)phenoxy]-3,3a,4,5,6,6a-hexahydro-1H-cyclopenta[c]pyrrol-2-yl]methanone]	4.8
N#Cc1cc(C(F)(F)F)ccc1O[C@H]1C[C@@H]2CN(C(=O)N3CC4(CC(n5cnc(C6CC6)n5)C4)C3)C[C@@H]2C1 [Example 114, 2-[[rac-(3aS,6aR)-2-[6-(3-cyclopropyl-1,2,4-triazol-1-yl)-2-azaspiro[3.3]heptane-2-carbonyl]-3,3a,4,5,6,6a-hexahydro-1H-cyclopenta[c]pyrrol-5-yl]oxy]-5-(trifluoromethyl) benzonitrile]	10.4
O=C(N1C[C@H]2C[C@H](Oc3ccc(C(F)(F)F)c(Cl)c3)C[C@H]2C1)N1CC2(CC(n3cnc(C4CC4)n3)C2)C1 [Example 115, [6-(3-cyclopropyl-1,2,4-triazol-1-yl)-2-azaspiro[3.3]heptan-2-yl]-[rac-(3aS,6aR)-5-[3-chloro-4-(trifluoromethyl)phenoxy]-3,3a,4,5,6,6a-hexahydro-1H-cyclopenta[c]pyrrol-2-yl]methanone]	2.4
COc1cc(C(F)(F)F)ccc1O[C@H]1C[C@@H]2CN(C(=O)N3CC4(CC(n5cnc(C6CC6)n5)C4)C3)C[C@@H]2C1 [Example 116, [6-(3-cyclopropyl-1,2,4-triazol-1-yl)-2-azaspiro[3.3]heptan-2-yl]-[rac-(3aS,6aR)-5-[2-methoxy-4-(trifluoromethyl)phenoxy]-3,3a,4,5,6,6a-hexahydro-1H-cyclopenta[c]pyrrol-2-yl]methanone]	2.7
O=C(N1C[C@H]2C[C@H](Oc3ccc(C(F)(F)F)c(F)c3)C[C@H]2C1)N1CC2(CC(n3cnc(C4CC4)n3)C2)C1 [Example 117, [6-(3-cyclopropyl-1,2,4-triazol-1-yl)-2-azaspiro[3.3]heptan-2-yl]-[rac-(3aS,6aR)-5-[3-fluoro-4-(trifluoromethyl)phenoxy]-3,3a,4,5,6,6a-hexahydro-1H-cyclopenta[c]pyrrol-2-yl]methanone]	3.5
N#Cc1cc(O[C@H]2C[C@@H]3CN(C(=O)N4CC5(CC(n6cnc(C7CC7)n6)C5)C4)C[C@@H]3C2)ccc1C(F)(F)F [Example 118, 5-[rac-(3aS,6aR)-2-[6-(3-cyclopropyl-1,2,4-triazol-1-yl)-2-azaspiro[3.3]heptane-2-carbonyl]-3,3a,4,5,6,6a-hexahydro-1H-cyclopenta[c]pyrrol-5-yl]oxy]-2-(trifluoromethyl) benzonitrile]	4.7
O=C(N1C[C@H]2C[C@H](Oc3ccc(F)c(F)c3)C[C@H]2C1)N1CC2(CC(n3cnc(C4CC4)n3)C2)C1 [Example 119, [6-(3-cyclopropyl-1,2,4-triazol-1-yl)-2-azaspiro[3.3]heptan-2-yl]-[rac-(3aS,6aR)-5-(3,4-difluorophenoxy)-3,3a,4,5,6,6a-hexahydro-1H-cyclopenta[c]pyrrol-2-yl]methanone]	7.4
O=C(N1C[C@H]2C[C@H](Oc3ccc(F)c(C(F)(F)F)c3)C[C@H]2C1)N1CC2(CC(n3cnc(C4CC4)n3)C2)C1 [Example 120, [6-(3-cyclopropyl-1,2,4-triazol-1-yl)-2-azaspiro[3.3]heptan-2-yl]-[rac-(3aS,6aR)-5-[4-fluoro-3-(trifluoromethyl)phenoxy]-3,3a,4,5,6,6a-hexahydro-1H-cyclopenta[c]pyrrol-2-yl]methanone]	1
O=C(N1C[C@H]2C[C@H](Oc3ccc(F)cc3F)C[C@H]2C1)N1CC2(CC(n3cnc(C4CC4)n3)C2)C1 [Example 121, [6-(3-cyclopropyl-1,2,4-triazol-1-yl)-2-azaspiro[3.3]heptan-2-yl]-[rac-(3aS,6aR)-5-(2,4-difluorophenoxy)-3,3a,4,5,6,6a-hexahydro-1H-cyclopenta[c]pyrrol-2-yl]methanone]	5.4
COc1cc(F)ccc1O[C@H]1C[C@@H]2CN(C(=O)N3CC4(CC(n5cnc(C6CC6)n5)C4)C3)C[C@@H]2C1 [Example 122, [6-(3-cyclopropyl-1,2,4-triazol-1-yl)-2-azaspiro[3.3]heptan-2-yl]-[rac-(3aS,6aR)-5-(4-fluoro-2-methoxy-phenoxy)-3,3a,4,5,6,6a-hexahydro-1H-cyclopenta[c]pyrrol-2-yl]methanone]	7.3
CS(=O)(=O)c1cc(F)ccc1O[C@H]1C[C@@H]2CN(C(=O)N3CC4(CC(n5cnc(C6CC6)n5)C4)C3)C[C@@H]2C1 [Example 123, [6-(3-cyclopropyl-1,2,4-triazol-1-yl)-2-azaspiro[3.3]heptan-2-yl]-[rac-(3aS,6aR)-5-(4-fluoro-2-methylsulfonyl-phenoxy)-3,3a,4,5,6,6a-hexahydro-1H-cyclopenta[c]pyrrol-2-yl]methanone]	41.9
O=C(N1C[C@H]2C[C@H](Oc3c(F)cc(F)cc3F)C[C@H]2C1)N1CC2(CC(n3cnc(C4CC4)n3)C2)C1 [Example 124, [6-(3-cyclopropyl-1,2,4-triazol-1-yl)-2-azaspiro[3.3]heptan-2-yl]-[rac-(3aS,6aR)-5-(2,4,6-trifluorophenoxy)-3,3a,4,5,6,6a-hexahydro-1H-cyclopenta[c]pyrrol-2-yl]methanone]	4
Cc1cc(O[C@H]2C[C@@H]3CN(C(=O)N4CC5(CC(n6cnc(C7CC7)n6)C5)C4)C[C@@H]3C2)ccc1F [Example 125, [6-(3-cyclopropyl-1,2,4-triazol-1-yl)-2-azaspiro[3.3]heptan-2-yl]-[rac-(3aS,6aR)-5-(4-fluoro-3-methyl-phenoxy)-3,3a,4,5,6,6a-hexahydro-1H-cyclopenta[c]pyrrol-2-yl]methanone]	4.6
N#Cc1cc(O[C@H]2C[C@@H]3CN(C(=O)N4CC5(CC(n6cnc(C7CC7)n6)C5)C4)C[C@@H]3C2)ccc1F [Example 127, 2-fluoro-5-[[rac-(3aS,6aR)-2-[6-(3-cyclopropyl-1,2,4-triazol-1-yl)-2-azaspiro[3.3]heptane-2-carbonyl]-3,3a,4,5,6,6a-hexahydro-1H-cyclopenta[c]pyrrol-5-yl]oxy]benzonitrile]	14.4
Cc1cc(F)c(F)cc1O[C@H]1C[C@@H]2CN(C(=O)N3CC4(CC(n5cnc(C6CC6)n5)C4)C3)C[C@@H]2C1 [Example 128, [6-(3-cyclopropyl-1,2,4-triazol-1-yl)-2-azaspiro[3.3]heptan-2-yl]-[rac-(3aS,6aR)-5-(4,5-difluoro-2-methyl-phenoxy)-3,3a,4,5,6,6a-hexahydro-1H-cyclopenta[c]pyrrol-2-yl]methanone]	1.8
N#Cc1cc(F)ccc1O[C@H]1C[C@@H]2CN(C(=O)N3CC4(CC(n5cnc(C6CC6)n5)C4)C3)C[C@@H]2C1 [Example 129, 5-fluoro-2-[[rac-(3aS,6aR)-2-[6-(3-cyclopropyl-1,2,4-triazol-1-yl)-2-azaspiro[3.3]heptane-2-carbonyl]-3,3a,4,5,6,6a-hexahydro-1H-cyclopenta[c]pyrrol-5-yl]oxy]benzonitrile]	72.2

Reference: patent US20240199587A1, “HETEROCYCLIC COMPOUNDS” (Hoffmann-La Roche Inc., priority 2021, published 2024)
